Measured values taken from patent publication US8900444B2, “Switchable hydrophilicity solvents and methods of use thereof” (Queen's University at Kingston, priority 2009, dated 2014).
Entries after “also recorded” stand apart in the source; their conditions may differ. Like-named read-outs stand apart in the source and are kept apart here.

How the values were obtained:
Format in all cases: physicochemical
[1] = Miscibility of amines with water in the absence of CO2 (Example 5A)
Method: 1 mL of an appropriate amine was combined with 1 mL of H2O in a 4 mL vial, with the 1 and 2 mL volume lines marked. The vial was manually shaken and left to settle at room temperature. After the mixture settled, the number of phases was observed visually. This procedure was performed for all of the screened amines.

[2] = Miscibility of amines with water in the presence of CO2 (Example 5B); details: CO2 bubbled through amine/water mixture for at least one hour
Method: All of the amines that formed a biphasic mixture in Example 5A were subjected to the following test. Carbon dioxide was bubbled through the amine/water biphasic mixture, via a syringe needle, for at least one hour. Care was taken to regulate the rate of the CO2 bubbling, so as not to cause evaporation of the amine. The liquid-liquid interface was observed over the course of CO2 bubbling, and a photo was taken after 60 minutes.

[3] = Conversion of amine switchable hydrophilicity solvents back to hydrophobic form by heating (Example 5C); details: 80 °C, approximately 60 minutes
Method: All of the amines identified as switchable hydrophilicity solvents in Example 5B (except N,N-dimethylbutylamine) were subjected to the following test. The vial containing the single-phase amine/water/CO2 mixture prepared in example 5B was heated in an oil bath at 80° C. for approximately 60 minutes. The mixture was magnetically stirred, and phase separation was observed throughout the course of heating. In the case of the N1,N1,N4,N4-tetraethylbutane-1,4-diamine/water/CO2 mixture, 5 hours of heating was required to switch it back to its hydrophobic form.

[4] = Converting ammonium bicarbonate salt to amine by bubbling air at room temperature (Example 5D)
Method: A homogeneous aqueous solution of dimethylcyclohexylammonium bicarbonate was prepared by mixing N,N-dimethylcyclohexylamine (1 mL), and H2O (1 mL) and bubbling with CO2 for 90 minutes. The 2.0 mL solution was placed in a 10 mL graduated cylinder with a magnetic stir bar and that was then stoppered with a rubber septum. Air was bubbled through the solution for a total of 28 hours, with constant stirring. […] Total volume loss after 28 hours was 0.1 mL.

[5] = Water miscibility of amidines in neutral form and after CO2; details: for miscibility with water, neutral (unprotonated) amidine form: no CO2
Excerpt: This represents relatively hydrophilic character. The amidines A-D are unsatisfactory for use as a switchable hydrophilicity solvent because they are insufficiently hydrophobic in their amidine form. […] Since such amidines are not separable from water after switching from their hydrophilic to hydrophobic forms, they are unsuitable for use in the present invention.
Exposure of a 1:1 by volume mixture of two immiscible liquids, hydrophobic PA and water, to gaseous CO2, at 1 atmosphere, caused a conversion to a hydrophilic liquid comprising an aqueous solution of N,N,N′-tripropylbutyramidinium bicarbonate (PAB) (see FIG. 1 for the chemical scheme in which R^1-4 are propyl). NMR data for the PA/water system is presented in FIGS. 4 and 5 and IR data in FIG. 6. FIGS. 4A and 5A show ^1H and ^13C NMR data for PA. After switching, the detection of the N,N,N′-tripropylbutyramidinium bicarbonate salt was confirmed by ^1H and ^13C NMR as shown in FIGS. 4B and 5B.
Similarly, exposure of a 1:1 by volume mixture of two immiscible liquids, hydrophobic BA and water, to gaseous CO2, at 1 atmosphere, caused a conversion to a hydrophilic liquid comprising an aqueous solution of N,N,N′-tributylpentanamidinium bicarbonate (BAB) (see FIG. 1 for the chemical scheme in which R^1-4 are butyl). NMR data for the […] is presented in FIGS. 7 and 8 and IR data in FIG. 9. […] show ^1H and ^13C NMR data for BA. After switching, the detection of the N,N,N′-tributylpentanamidinium bicarbonate salt was confirmed by ^1H and ^13C NMR as shown in FIGS. 6B and 7B. The hydrophilic aqueous solution of BAB was converted back into hydrophobic BA and water by heating at 80° C.

[6] = Visual and NMR study of amine switchable hydrophilicity solvents (Example 6); details: for loss of volume after CO2 bubbling / time of CO2 bubbling to form one homogeneous solution / total volume after CO2 bubbling / number of layers formed without CO2: 1 mL amine + 1 mL D2O; for number of layers formed without CO2: room temperature
Method: The following amines were evaluated in this series of experiments: N-ethylpiperidine, N,N-dimethylcyclohexylamine, and N,N-dimethylhexylamine. The sequence of experiments is described for one amine but was performed for all three. The visual observations are described in Table 3. 1,4-Dioxane was used as an internal standard for NMR spectroscopy.
Amine (1 mL) was combined with D2O (1 mL) in a 10 mL graduated cylinder, which was then capped with a rubber septum. The cylinder was manually shaken and left to settle at room temperature, after which the mixture appeared as two transparent liquid phases. For each amine, this procedure was simultaneously conducted in 3 identical cylinders. From the aqueous (bottom) layer of one of the three cylinders, three 250 μL samples were withdrawn, combined with equal volumes of D2O and dioxane internal standard, and analyzed by ^1H NMR spectroscopy. The spectra were consistent with the amine in the aqueous phase being in its neutral form. The graduated cylinder from which the samples were taken was discarded.
For each of two remaining graduated cylinders, carbon dioxide was bubbled through the amine/water biphasic mixture, via a syringe needle, for at least one hour. Care was taken to regulate the rate of the CO2 bubbling, so as not to cause significant evaporation of the amine. The mixture changed from a biphasic liquid mixture to a single homogeneous liquid phase. From one of the two graduated cylinders, a 300 μL sample of the homogenous liquid phase was withdrawn and mixed with an equal volume of D2O and a known quantity of dioxane internal standard. […] The graduated cylinder from which the sample was taken was discarded.
The remaining graduated cylinder, containing the single-phase amine/water/CO2 mixture prepared above, was heated in an oil bath at 80 deg. C for 1 hour. Phase separation was observed. Three 250 μL samples of the aqueous (bottom) layer were withdrawn, combined with equal volumes of D2O and a known quantity of dioxane internal standard, and analyzed by NMR spectroscopy.

[7] = 1 mL amine + 1 mL H2O, room temperature, visual
[8] = 2.0 mL aqueous solution, stirring

| Structure (SMILES) | miscibility with water under air (absence of CO2) [1, 7] | miscibility with water after CO2 treatment [2] | further results |
| --- | --- | --- | --- |
| CCCN(C)CCC [methyldipropylamine] | biphasic | single-phase | miscibility with water under air (absence of CO2) ([1]; 1 mL amine + 1 mL H2O, room temperature, visual, listed as dipropylmethylamine): immiscible with water; miscibility with water after CO2 treatment ([2]; listed as dipropylmethylamine): became water-miscible; loss of amine during heating (excessive volatility) [3]: loss of amine |
| CN1CCCCC1 [N-methylpiperidine, reference compound] | single-phase | – | – |
| CCCCN(C)C [N,N-dimethylbutylamine] | biphasic | single-phase | – |
| CN(C)c1ccccc1 [N,N-dimethylaniline, reference compound] | biphasic | biphasic | – |
| CCCN(CC)CCCCN(CC)CCC [N,N′-dipropyl-N,N′-diethylbutane-1,4-diamine] | biphasic | single-phase | miscibility with water under air (absence of CO2) ([1]; 1 mL amine + 1 mL H2O, room temperature, visual, listed as EtPrNCH2CH2CH2CH2NEtPr): immiscible; miscibility with water after CO2 treatment ([2]; listed as EtPrNCH2CH2CH2CH2NEtPr): miscible |
| CCCCN1CCCC1 [N-butylpyrrolidine] | immiscible with water; also recorded: biphasic | became water-miscible; also recorded: single-phase | – |
| CN(C)C1CCCCC1.O=C(O)O [dimethylcyclohexylammonium bicarbonate] | – | – | total volume loss after 28 hours of air bubbling [4]: 0.1 mL; volume of bottom layer after 28 hours of air bubbling [4]: 1.6 mL; volume of top layer after 28 hours of air bubbling [4]: 0.3 mL; observation after 8 hours of air bubbling [4, 8]: no observed phase separation or volume loss; observation after 28 hours of air bubbling [4, 8]: a two-phase liquid mixture was observed |
| CCN1CCOCC1 [N-ethylmorpholine, reference compound] | single-phase | – | – |
| CCCN=C(CCC)N(CCC)CCC [PA, N,N,N′-tripropylbutyramidine] | – | – | miscibility with water after CO2 trigger (amidinium bicarbonate form) ([5]; CO2 and water): became miscible; miscibility with water, neutral (unprotonated) amidine form [5]: immiscible with water |
| C1CCC2=NCCCN2CC1 [DBU, 1,8-diazabicyclo-[5.4.0]-undec-7-ene, reference compound] | – | – | miscibility with water, neutral (unprotonated) amidine form [5]: water-miscible |
| CCCN(CCC)CCC [tripropylamine, reference compound] | biphasic | biphasic | – |
| CCN(C)CC [N,N-diethyl-N-methylamine] | immiscible with water | became water-miscible | – |
| CN(C)CCCCN(C)C [Me2NCH2CH2CH2CH2NMe2, reference compound] | miscible | – | – |
| CCCCCCCCCCCCN(C)C [N,N-dimethyldodecylamine, reference compound] | biphasic | biphasic | – |
| CCN(CC)C1CCCCC1 [N,N-diethyl-N-cyclohexylamine] | immiscible with water | became water-miscible | – |
| CN(C)CC1CC(CN(C)C)CC(CN(C)C)C1 (stereo not shown) [1,1′,1″-(cyclohexane-1,3,5-triyl)tris(N,N-dimethylmethanamine] | biphasic | single-phase | – |
| CCN(C(C)C)C(C)C [N,N-diisopropylethylamine, reference compound] | biphasic | biphasic | – |
| CN(C)CCN(C)C [N,N,N′,N′,-tetramethylethylenediamine, reference compound] | – | – | miscibility with water under air (absence of CO2) [1]: single-phase |
| CCCCCCN(C)C [N,N-dimethylhexylamine] | biphasic | single-phase | miscibility with water under air (absence of CO2) ([1]; 1 mL amine + 1 mL H2O, room temperature, visual, listed as dimethylhexylamine): immiscible with water; loss of volume after CO2 bubbling [6]: (loss of 0.1 mL); time of CO2 bubbling to form one homogeneous solution [6]: took 75 min to form one; total volume after CO2 bubbling [6]: total volume is 1.9 mL; number of layers formed without CO2 [6]: formed 2 clear,; time of heating to separate into 2 layers ([6]; oil bath 80 deg. C): after 30 min solution has; volume of bottom (aqueous) layer after heating ([6]; oil bath 80 deg. C): 1 mL; volume of top layer after heating ([6]; oil bath 80 deg. C): 0.9 mL; miscibility with water after CO2 treatment ([2]; listed as dimethylhexylamine): became water-miscible |
| CN(C)Cc1cc(CN(C)C)cc(CN(C)C)c1 [1,1′,1″-(benzene-1,3,5-triyl)tris(N,N-dimethylmethanamine)] | biphasic | single-phase | – |
| CCCCCCN=C(C)N(C)C [Me2N—C(═N-hexyl)Me, reference compound] | – | – | miscibility with water, neutral (unprotonated) amidine form [5]: water-miscible |
| CCN1CCCCC1 [N-ethylpiperidine] | immiscible with water; also recorded: biphasic | became water-miscible; also recorded: single-phase | loss of volume after CO2 bubbling [6]: (loss of 0.1 mL); time of CO2 bubbling to form one homogeneous solution [6]: took 60 min to form one; total volume after CO2 bubbling [6]: total volume is 1.9 mL; number of layers formed without CO2 [6]: formed 2 layers;; amine remaining in the aqueous phase after heating ([6]; 80 deg. C, 1 hour, NMR spectroscopy, dioxane internal standard): showed that approximately 49%; time of heating to separate into 2 layers ([6]; oil bath 80 deg. C): after 30 min, separated into 2; volume of top layer after heating ([6]; oil bath 80 deg. C): 0.7 mL. NMR spectroscopy |
| CCCCCCCCN(CCCCCCCC)CCCCCCCC [trioctylamine, reference compound] | biphasic | biphasic | – |
| CCCN(CCC)CCCCN(CCC)CCC [N,N,N′,N′-tetrapropylbutane-1,4-diamine, reference compound] | biphasic | biphasic | miscibility with water after CO2 treatment ([2]; listed as Pr2NCH2CH2CH2CH2NPr2): immiscible |
